Source: patent EP0563345B1, “NOVEL 4-ARYLPIPERAZINES AND 4-ARYLPIPERIDINES” (MCNEILAB, INC., priority 1991, dated 1993)
Where a name gives a salt, the structure may show the parent alone.

Assays:
[1] = tested on: Male, Fischer 344 rats; assay: Block of Conditioned Avoidance Responding (Rat) test (CAR); settings: for CAR 5 mg/kg IP Administration (% change CAR) / CAR 15 mg/kg IP Administration (% change CAR): negative number = blockade of CAR
Description: Apparatus: Rat operant chambers, housed within sound attenuated booths, both from Capden Instruments Ltd., were used in this test. The test chamber (8" H x […] D) is constructed of aluminum and plexiglass with floor grid bars of stainless-steel (1/8" O.D.) spaced 9/16" apart. A stainless-steel operation level 1-1/2" wide projects 3/4" into the chamber and is positioned 2-2/8" above the grid floor. The shock stimulus is delivered via the grid floor by a Coulbourn Instruments solid state module. The parameters of the test and the collection of data are controlled automatically.
The rats are trained for two weeks to approach criterion levels in the avoidance test (90% avoidance rate). One-hour training sessions are run at about the same time each day for four or five days a week. The training session consists of 120 trials, with the conditioned stimuli presented every 30 sec. A trial begins with presentation of the conditioned stimuli (a light and a tone). If the rat responds by depressing the operant lever during the 15-second presentation of the conditioned stimuli, the trial is terminated and the animal is credited with a CAR. Failure to respond during the conditioned stimuli causes the presentation of the unconditioned stimulus (UCS), a 0.7 mA shock which is accompanied by a light and tone for five seconds. If the rat depressed the lever within the ten-second period, the shock and trial are terminated and an escape response recorded. If the rat fails to depress the lever during the UCS (shock), the trial is terminated after ten seconds of shock and the absence of a response is scored as a failure to escape. Intertrial level presses have no effect. If a rat performs at the 90% CAR level for two weeks, it is then run twice a week on the test schedule (see below) until baseline performance stabilized.
Trained rats are run in a one-hour session on two consecutive days at the same time and in the same test chamber each day. The sessions consist of 60 trials, one every minute. The conditioned stimuli are presented for 15 sec (maximum) and the unconditioned stimuli five sec (maximum). On Day 1, a vehicle solution is administered to the rats at a time preceding the trial run corresponding to the pretreatment time for the test compound. The route of administration and the volume of vehicle are also matched to that of the test compound.
The percent change in CAR on the drug treatment day compared to vehicle pretreatment day is the key measure. The percent change (% change) in CAR is determined using the following formula: % change CAR = ((% CAR for Day 2/% CAR for Day 1) x 100)-100 [formula]
A negative number indicates a blockade of CAR, whereas a positive number would indicate increased CAR. The test results are reported as the mean % change for the group of rats. Failure to escape, a measure of the general sedative potential of the compound, was calculated for each animal as follows: % Failures = # of Failures to Escape/# of trials [formula]
The % failures, viz., loss of escape, is also reported as a group mean. Failures to escape are monitored closely and a session is terminated if ten failures occurred.
In the Tables and formulas therein, OiPr is isopropoxy, Me is methyl, MeO is methoxy, Et is ethyl, Ph is phenyl, n-Bu is normal butyl, cC6H11 is cyclohexyl, BOC is t-butyloxycarbonyl, Ac is acetyl, and NT is not tested in that partcular test. The escape loss numbers are shown at CAR 5 mg/kg unless otherwise noted.

[2] = target: T1, D-2 (dopamine-2) receptors (Rattus norvegicus, UniProt P61169); assay: biochemical; assay type: binding, male, Wistar rats; settings: rat striatum P2 fraction, 3H-spiperone 0.05 nM; read-out: Receptor Binding (Ki nM) D2
T1 construct: The D2 assay employed a P2 fraction from the striatum, the ligand ^3H-spiperone at a concentration of 0.05 nM; from tissue; host or cells: rat striatum, P2 fraction (synaptosomal membranes), male Wistar rats
Procedure: The dopamine D2 binding activity of compounds was determined using a P2 fraction (synaptosomal membranes) prepared from male, Wistar rats.
The data from this assay were analyzed by calculating the percent inhibition of the binding of the tritiated ligands by given concentrations of the test compound. Kl values, where given, were obtained from the logit analysis of concentration-inhibition curves.

T1 sequence (P61169 whole entry): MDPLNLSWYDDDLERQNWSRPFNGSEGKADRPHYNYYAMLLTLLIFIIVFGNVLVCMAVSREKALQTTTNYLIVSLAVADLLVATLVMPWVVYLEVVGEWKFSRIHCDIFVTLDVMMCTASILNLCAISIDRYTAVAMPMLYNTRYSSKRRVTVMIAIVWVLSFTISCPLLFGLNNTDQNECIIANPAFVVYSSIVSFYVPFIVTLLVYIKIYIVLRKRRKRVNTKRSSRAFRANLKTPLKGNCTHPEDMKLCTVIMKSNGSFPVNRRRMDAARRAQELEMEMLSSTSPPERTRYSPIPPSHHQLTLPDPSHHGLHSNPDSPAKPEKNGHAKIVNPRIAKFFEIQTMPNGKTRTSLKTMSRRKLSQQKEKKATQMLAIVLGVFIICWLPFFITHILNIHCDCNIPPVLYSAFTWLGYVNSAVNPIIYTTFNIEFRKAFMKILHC

Row | Compound | Ki [2] [nM] | CAR 15 mg/kg IP Administration (% change CAR) [1] [%] | (Escape Loss) % failures to escape ([1]; at CAR 15 mg/kg IP) [%] | further results
1 | O=C(c1cccc(CN2CCN(c3cc(Cl)cc(Cl)c3)CC2)c1)N1CCCCC1 [Compound 94] | 21 | – | – | CAR 5 mg/kg IP Administration (% change CAR) [1]: -43%; (Escape Loss) % failures to escape ([1]; at CAR 5 mg/kg IP): 3%
2 | COc1ccc(CN2CCC(c3ccccc3OC(C)C)CC2)cc1C(=O)N1[C@H](C)CCC[C@@H]1C [Compound 15] | 43 | -86 | 30 | –
3 | CC(C)Oc1ccccc1C1CCN(Cc2cccc(C(=O)N3CCOCC3)c2)CC1 [Compound 41] | 9.6 | – | – | CAR 5 mg/kg IP Administration (% change CAR) [1]: -96%; (Escape Loss) % failures to escape ([1]; at CAR 5 mg/kg IP): 70%
4 | COc1ccccc1N1CCN(Cc2cccc(C(=O)N3CCCCCC3)c2)CC1 [Compound 85] | – | – | – | CAR 5 mg/kg IP Administration (% change CAR) [1]: -95%; (Escape Loss) % failures to escape ([1]; at CAR 5 mg/kg IP): 22%
5 | CC(C)Oc1ccccc1N1CCN(Cc2ccc(N)c(C(=O)N3CCCCC3)c2)CC1 [Compound 17] | 6.4 | -100 | 87 | –
6 | CC(C)Oc1ccccc1N1CCN(CCCCc2ccc(C(=O)N3CCCCC3)cc2)CC1 [Compound 102, 1-[4-[4-[4-[2-(1-Methylethoxy)phenyl]-1-piperazinyl]butyl]benzoyl]piperidine dihydrobromide] | 7.2 | – | – | –
7 | O=C(c1cccc(CN2CCN(c3ccccc3)CC2)c1)N1CCCCC1 [Compound 95] | – | -82 | 11 | –
8 | CC(C)Oc1ccccc1N1CCN(Cc2cccc(C(=O)N3CCC3)c2)CC1 [Compound 51] | – | -88 | 0 | –
9 | COc1ccc(CN2CCN(c3ncccn3)CC2)cc1C(=O)N1[C@H](C)CCC[C@@H]1C [Compound 6] | 808 | – | – | –
10 | CCOC(=O)C1CCN(C(=O)c2cccc(CN3CCN(c4ccccc4OC(C)C)CC3)c2)CC1 [Compound 42] | 121 | – | – | CAR 5 mg/kg IP Administration (% change CAR) [1]: -18%; (Escape Loss) % failures to escape ([1]; at CAR 5 mg/kg IP): 0%
11 | CC(C)Oc1ccccc1N1CCN(Cc2cccc(C(=O)N3CCCCC3CO)c2)CC1 (stereo not drawn) [Compound 21] | 5.2 | -99 | 43 | –
12 | CCOC(=O)C1CCN(C(=O)c2ccccc2CN2CCN(c3ccccc3OC(C)C)CC2)CC1 [Compound 108] | 10.4 | – | – | –
13 | CC(=O)Nc1ccc(CN2CCN(c3ccccc3OC(C)C)CC2)cc1C(=O)N1CCCCC1 [Compound 28] | 29 | -100 | 17 | –
14 | CC(C)Oc1ccccc1N1CCN(CCCC(O)c2ccc(C(=O)N3CCCCC3)cc2)CC1 (stereo not drawn) [Compound 101, bisoxalate] | 13 | – | – | –
15 | CC(C)Oc1ccccc1N1CCN(Cc2ccccc2C(=O)N2CCCC(C)(C)C2)CC1 [Compound 109] | 7 | – | – | –
16 | O=C(c1cccc(CN2CCN(c3ccccc3F)CC2)c1)N1CCCCC1 [Compound 22] | – | -84 | 21 | –
17 | C[C@@H]1CCC[C@H](C)N1C(=O)c1cccc(CN2CCN(c3ccc(Cl)c(Cl)c3)CC2)c1 [Compound 14] | 6.5 | -63 | 3 | –
18 | CCOC(=O)C1CCCCN1C(=O)c1cccc(CN2CCN(c3ccccc3OC(C)C)CC2)c1 (stereo not drawn) [Compound 19] | 4.1 | -97 | 46 | –
19 | CC(C)Oc1ccccc1N1CCN(Cc2cccc(C(=O)N3CCCCCCC3=O)c2)CC1 [Compound 67] | 10.2 | – | – | CAR 5 mg/kg IP Administration (% change CAR) [1]: -28%; (Escape Loss) % failures to escape ([1]; at CAR 5 mg/kg IP): 7%
20 | CC(C)Oc1ccccc1N1CCN(Cc2cccc(C(=O)N3CCN(Cc4ccccc4)CC3)c2)CC1 [Compound 64] | 40 | – | – | CAR IP Administration (% change CAR) at 30 mg/kg ([1]; 30 mg/kg IP): -23%; (Escape Loss) % failures to escape ([1]; at CAR 30 mg/kg IP): 2%

Row | Compound | Ki [2] [nM] | CAR 15 mg/kg IP Administration (% change CAR) [1] [%] | (Escape Loss) % failures to escape ([1]; at CAR 15 mg/kg IP) [%] | further results
21 | CC(C)Oc1ccccc1N1CCN(Cc2cccc(C(=O)N3CCC[C@H]3CO)c2)CC1 [Compound 16] | 5.1 | -99 | 35 | –
22 | CC(C)Oc1ccccc1N1CCN(Cc2cccc(C(=O)N3CCC[C@H]3C(=O)OCc3ccccc3)c2)CC1 [Compound 13] | 10 | -4 | 0 | –
23 | CC(C)Oc1ccccc1C1CCN(Cc2cccc(C(=O)N3CCCCC3)c2)CC1.Cl [Compound 38, 1-[3-[[4-[2-(1-Methylethoxy)phenyl]-1-piperidinyl]methyl]benzoyl]-piperidine hydrochloride] | 2.8 | – | – | CAR 5 mg/kg IP Administration (% change CAR) [1]: -92%; (Escape Loss) % failures to escape ([1]; at CAR 5 mg/kg IP): 5%
24 | CC(C)Oc1ccccc1N1CCN(Cc2cccc(S(=O)(=O)N3CCC(O)CC3)c2)CC1 [Compound 107, 1-[3-[[4[2-(1-Methylethoxy)phenyl]-1-piperazinyl]methyl]phenylsulfonyl]-4-hydroxypiperidine] | 69 | – | – | CAR 5 mg/kg IP Administration (% change CAR) [1]: -95%; (Escape Loss) % failures to escape ([1]; at CAR 5 mg/kg IP): 5%
25 | O=C(c1cccc(CN2CCN(c3cccc(Cl)c3)CC2)c1)N1CCCCC1 [Compound 91] | – | – | – | CAR 5 mg/kg IP Administration (% change CAR) [1]: -36%; (Escape Loss) % failures to escape ([1]; at CAR 5 mg/kg IP): 21%
26 | CC(C)Oc1ccccc1N1CCN(Cc2ccccc2C(=O)N2CCOCC2)CC1 [Compound 110] | 32 | – | – | –
27 | CC(C)Oc1ccccc1N1CCN(Cc2cccc(C(=O)N3CCC4CCCCC4C3)c2)CC1 (stereo not drawn) [Compound 61] | 11.4 | – | – | CAR 5 mg/kg IP Administration (% change CAR) [1]: -36%; (Escape Loss) % failures to escape ([1]; at CAR 5 mg/kg IP): 3%
28 | CC(C)Oc1ccccc1N1CCN(Cc2cccc(C(=O)N3CCC4CCCCC43)c2)CC1 (stereo not drawn) [Compound 4] | 5.6 | – | – | –
29 | CC(C)Oc1ccccc1C1CCN(Cc2cccc(C(=O)N3[C@H](C)CCC[C@@H]3C)c2)CC1 [Compound 40] | – | – | – | CAR 5 mg/kg IP Administration (% change CAR) [1]: -98%; (Escape Loss) % failures to escape ([1]; at CAR 5 mg/kg IP): 37%
30 | CC(C)Oc1ccccc1N1CCN(Cc2cccc(C(=O)N3C(C)(C)CCCC3(C)C)c2)CC1 [Compound 12] | 4.7 | -92 | 9 | –
31 | CC(C)Oc1ccccc1N1CCN(Cc2ccc([N+](=O)[O-])c(C(=O)N3CCCCC3)c2)CC1 [Compound 7] | 85 | – | – | –
32 | CCN(CC)C(=O)c1cccc(CN2CCN(c3ccccc3OC(C)C)CC2)c1 [Compound 68] | – | – | – | CAR 5 mg/kg IP Administration (% change CAR) [1]: -96%; (Escape Loss) % failures to escape ([1]; at CAR 5 mg/kg IP): 14%
33 | C[C@@H]1CCC[C@H](C)N1C(=O)c1cccc(CN2CCN(c3ccccc3C#N)CC2)c1 [Compound 3] | 303 | – | – | –
34 | CCCCN(CCCC)C(=O)c1cccc(CN2CCN(c3ccccc3OC(C)C)CC2)c1 [Compound 69] | – | -6 | 0 | –
35 | CC(C)Oc1ccccc1N1CCN(CCCC(=O)c2ccc(C(=O)N3CCCCC3)cc2)CC1 [Compound 100, fumarate] | 11 | – | – | –
36 | O=C(c1cccc(CN2CCN(c3cccc([N+](=O)[O-])c3)CC2)c1)N1CCCCC1 [Compound 49] | – | -78 | 0 | –
37 | CC(C)Oc1ccccc1N1CCN(Cc2cccc(C(=O)N3C(C)CCC3C)c2)CC1 (stereo not drawn) [Compound 2] | 4.7 | – | – | –
38 | CC(C)Oc1ccccc1N1CCN(Cc2cccc(C(=O)N3CCCC3)c2)CC1 [Compound 52] | – | – | – | CAR IP Administration (% change CAR) at 7.5 mg/kg ([1]; 7.5 mg/kg IP): -98%; (Escape Loss) % failures to escape ([1]; at CAR 7.5 mg/kg IP): 0%
39 | CC(C)Oc1ccccc1N1CCN(Cc2cccc(C(=O)N3CC4CCC(CC4)C3)c2)CC1 [Compound 96] | – | -98 | 67 | –
